# Source: publication PMC9927415, “Tyrosine Kinase Inhibitors Display Potent Activity against Cryptosporidium parvum” (Microbiology Spectrum, 2022)
# Columns and labels:
# Assay in all cases: KINOMEscan competitive binding
# PKN2 = target: T1, PKN2 (Homo sapiens, UniProt Q16513); conditions: n=1, read-out: Percent inhibition, PKN2
# T1 construct: purchased DiscoverX (KINOMEscan)
# PRKG2 = target: T2, PRKG2 (Homo sapiens, UniProt Q13237); conditions: n=1, read-out: Percent inhibition, PRKG2
# T2 construct: purchased DiscoverX (KINOMEscan)
# T2 sequence (Q13237 1-762): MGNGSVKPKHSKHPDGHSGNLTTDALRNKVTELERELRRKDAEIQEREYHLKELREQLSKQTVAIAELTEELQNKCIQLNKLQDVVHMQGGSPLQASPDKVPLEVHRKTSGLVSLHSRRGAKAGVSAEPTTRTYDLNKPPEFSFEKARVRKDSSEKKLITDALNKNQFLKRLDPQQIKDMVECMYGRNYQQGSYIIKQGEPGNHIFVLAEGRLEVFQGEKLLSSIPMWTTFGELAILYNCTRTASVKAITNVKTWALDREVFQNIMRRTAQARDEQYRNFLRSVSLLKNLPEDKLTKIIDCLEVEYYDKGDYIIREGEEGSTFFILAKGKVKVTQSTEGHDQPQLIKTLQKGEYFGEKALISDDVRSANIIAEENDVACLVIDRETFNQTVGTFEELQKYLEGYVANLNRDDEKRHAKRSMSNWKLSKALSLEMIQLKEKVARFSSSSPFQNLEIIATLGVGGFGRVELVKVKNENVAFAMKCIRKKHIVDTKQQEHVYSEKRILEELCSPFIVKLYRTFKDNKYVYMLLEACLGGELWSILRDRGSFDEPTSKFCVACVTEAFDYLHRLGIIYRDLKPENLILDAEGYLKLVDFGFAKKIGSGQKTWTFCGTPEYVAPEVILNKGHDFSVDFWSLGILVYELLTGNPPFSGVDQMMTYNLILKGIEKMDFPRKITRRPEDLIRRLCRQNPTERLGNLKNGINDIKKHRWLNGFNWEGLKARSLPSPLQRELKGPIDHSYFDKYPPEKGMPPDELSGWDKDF
# PTK2 = target: T3, PTK2 (Homo sapiens, UniProt Q05397); conditions: n=1, read-out: Percent inhibition, PTK2
# T3 construct: purchased DiscoverX (KINOMEscan)
# PTK2B = target: T4, PTK2B (Homo sapiens, UniProt Q14289); conditions: n=1, read-out: Percent inhibition, PTK2B
# T4 construct: purchased DiscoverX (KINOMEscan)
# RET = target: T5, RET (Homo sapiens, UniProt P07949); conditions: n=1, read-out: Percent inhibition, RET
# T5 construct: purchased DiscoverX (KINOMEscan)
# TNNI3K = target: T6, TNNI3K (Homo sapiens, UniProt Q59H18); conditions: n=1, read-out: Percent inhibition, TNNI3K
# T6 construct: purchased DiscoverX (KINOMEscan)
# T6 sequence (Q59H18 1-835): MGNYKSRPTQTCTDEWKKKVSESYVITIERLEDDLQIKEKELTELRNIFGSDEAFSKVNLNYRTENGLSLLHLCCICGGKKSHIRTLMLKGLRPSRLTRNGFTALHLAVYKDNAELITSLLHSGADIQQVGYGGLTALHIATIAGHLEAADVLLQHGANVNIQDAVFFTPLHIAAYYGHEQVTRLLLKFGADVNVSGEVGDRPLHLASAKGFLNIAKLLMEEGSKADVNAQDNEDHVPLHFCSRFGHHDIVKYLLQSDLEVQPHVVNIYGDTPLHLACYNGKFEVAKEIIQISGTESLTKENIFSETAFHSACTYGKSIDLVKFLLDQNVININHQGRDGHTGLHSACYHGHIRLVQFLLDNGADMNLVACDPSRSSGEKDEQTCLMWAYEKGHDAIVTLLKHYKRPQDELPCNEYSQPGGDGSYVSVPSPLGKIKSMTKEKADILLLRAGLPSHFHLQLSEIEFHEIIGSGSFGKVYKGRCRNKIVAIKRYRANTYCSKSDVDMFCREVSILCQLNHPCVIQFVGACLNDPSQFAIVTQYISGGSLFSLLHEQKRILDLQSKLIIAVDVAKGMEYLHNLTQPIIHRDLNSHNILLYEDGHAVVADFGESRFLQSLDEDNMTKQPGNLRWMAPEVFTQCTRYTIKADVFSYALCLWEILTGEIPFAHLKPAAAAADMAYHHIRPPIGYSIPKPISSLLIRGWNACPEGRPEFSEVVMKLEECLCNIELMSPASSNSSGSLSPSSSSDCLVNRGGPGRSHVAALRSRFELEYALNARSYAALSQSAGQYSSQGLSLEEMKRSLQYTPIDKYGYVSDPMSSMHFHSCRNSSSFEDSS
# TRKA = target: T7, TRKA (Homo sapiens, UniProt P04629); conditions: n=1, read-out: Percent inhibition, TRKA
# T7 construct: purchased DiscoverX (KINOMEscan)
# TRKC = target: T8, TRKC (Homo sapiens, UniProt Q16288); conditions: n=1, read-out: Percent inhibition, TRKC
# T8 construct: purchased DiscoverX (KINOMEscan)
# ULK3(mouse) = target: T9, ULK3(mouse) (Mus musculus, UniProt Q3U3Q1); conditions: n=1, read-out: Percent inhibition, ULK3(mouse)
# T9 construct: purchased DiscoverX (KINOMEscan)
# T9 sequence (Q3U3Q1 1-472): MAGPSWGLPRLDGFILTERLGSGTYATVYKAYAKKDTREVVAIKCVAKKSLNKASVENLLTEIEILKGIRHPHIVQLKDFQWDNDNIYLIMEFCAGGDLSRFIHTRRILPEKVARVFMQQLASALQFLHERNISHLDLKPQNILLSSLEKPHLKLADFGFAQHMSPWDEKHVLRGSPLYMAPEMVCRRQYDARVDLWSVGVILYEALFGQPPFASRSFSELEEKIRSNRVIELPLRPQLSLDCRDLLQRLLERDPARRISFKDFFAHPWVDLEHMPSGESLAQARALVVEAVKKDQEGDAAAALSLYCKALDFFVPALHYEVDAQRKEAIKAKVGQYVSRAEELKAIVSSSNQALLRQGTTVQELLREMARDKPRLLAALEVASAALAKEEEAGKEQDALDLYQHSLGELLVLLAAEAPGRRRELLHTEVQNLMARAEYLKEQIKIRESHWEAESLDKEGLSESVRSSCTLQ
# YANK3 = target: T10, YANK3 (Homo sapiens, UniProt Q86UX6); conditions: n=1, read-out: Percent inhibition, YANK3
# T10 construct: purchased DiscoverX (KINOMEscan)
# YES = target: T11, YES (Homo sapiens, UniProt P07947); conditions: n=1, read-out: Percent inhibition, YES
# T11 construct: purchased DiscoverX (KINOMEscan)
# T11 sequence (P07947 whole entry): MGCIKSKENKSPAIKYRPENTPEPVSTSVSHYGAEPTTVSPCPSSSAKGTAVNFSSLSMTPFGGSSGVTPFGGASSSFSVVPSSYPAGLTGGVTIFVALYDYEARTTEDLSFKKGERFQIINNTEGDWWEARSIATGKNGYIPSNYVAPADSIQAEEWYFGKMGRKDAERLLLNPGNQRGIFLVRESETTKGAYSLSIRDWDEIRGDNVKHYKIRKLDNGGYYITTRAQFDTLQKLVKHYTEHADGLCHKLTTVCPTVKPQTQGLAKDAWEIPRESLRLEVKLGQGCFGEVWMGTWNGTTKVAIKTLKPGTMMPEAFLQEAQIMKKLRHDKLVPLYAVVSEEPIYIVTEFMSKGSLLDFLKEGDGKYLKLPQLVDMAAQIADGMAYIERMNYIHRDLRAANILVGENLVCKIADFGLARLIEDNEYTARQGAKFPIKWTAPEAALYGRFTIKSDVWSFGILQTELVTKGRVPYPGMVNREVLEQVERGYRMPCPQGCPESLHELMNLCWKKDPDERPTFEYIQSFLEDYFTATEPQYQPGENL
# T7 sequence (P04629 33-796): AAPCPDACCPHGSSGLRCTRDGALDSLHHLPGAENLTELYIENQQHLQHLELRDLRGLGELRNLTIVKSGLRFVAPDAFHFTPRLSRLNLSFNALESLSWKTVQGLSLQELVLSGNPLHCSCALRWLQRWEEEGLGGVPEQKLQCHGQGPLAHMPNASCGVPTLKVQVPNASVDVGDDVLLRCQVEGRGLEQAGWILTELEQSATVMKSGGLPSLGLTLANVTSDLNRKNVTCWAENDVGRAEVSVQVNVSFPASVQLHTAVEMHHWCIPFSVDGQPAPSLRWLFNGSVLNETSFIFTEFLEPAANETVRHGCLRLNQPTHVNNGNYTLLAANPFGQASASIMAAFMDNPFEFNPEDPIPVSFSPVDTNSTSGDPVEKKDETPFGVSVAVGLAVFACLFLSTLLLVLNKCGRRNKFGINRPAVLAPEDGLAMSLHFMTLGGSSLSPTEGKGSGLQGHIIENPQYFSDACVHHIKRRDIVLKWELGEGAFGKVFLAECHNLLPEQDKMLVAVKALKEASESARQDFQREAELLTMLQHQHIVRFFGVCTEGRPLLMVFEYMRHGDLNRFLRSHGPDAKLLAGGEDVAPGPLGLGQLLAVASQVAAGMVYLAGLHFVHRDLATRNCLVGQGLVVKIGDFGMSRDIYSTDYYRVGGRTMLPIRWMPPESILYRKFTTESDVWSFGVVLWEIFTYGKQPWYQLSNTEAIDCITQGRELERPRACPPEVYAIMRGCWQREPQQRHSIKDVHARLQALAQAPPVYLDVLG
# T10 sequence (Q86UX6 whole entry): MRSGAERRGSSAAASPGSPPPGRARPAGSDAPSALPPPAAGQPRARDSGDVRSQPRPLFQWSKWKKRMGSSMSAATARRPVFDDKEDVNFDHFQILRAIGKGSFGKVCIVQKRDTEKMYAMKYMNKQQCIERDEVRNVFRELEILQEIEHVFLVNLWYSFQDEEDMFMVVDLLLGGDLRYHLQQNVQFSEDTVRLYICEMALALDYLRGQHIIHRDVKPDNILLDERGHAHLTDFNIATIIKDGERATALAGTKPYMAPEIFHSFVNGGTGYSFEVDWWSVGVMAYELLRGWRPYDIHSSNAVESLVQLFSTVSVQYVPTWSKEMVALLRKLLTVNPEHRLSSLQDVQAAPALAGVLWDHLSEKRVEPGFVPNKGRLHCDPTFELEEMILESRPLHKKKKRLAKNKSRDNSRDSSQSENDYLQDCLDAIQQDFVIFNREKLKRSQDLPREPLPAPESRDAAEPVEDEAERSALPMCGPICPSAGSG
# T1 sequence (Q16513 whole entry): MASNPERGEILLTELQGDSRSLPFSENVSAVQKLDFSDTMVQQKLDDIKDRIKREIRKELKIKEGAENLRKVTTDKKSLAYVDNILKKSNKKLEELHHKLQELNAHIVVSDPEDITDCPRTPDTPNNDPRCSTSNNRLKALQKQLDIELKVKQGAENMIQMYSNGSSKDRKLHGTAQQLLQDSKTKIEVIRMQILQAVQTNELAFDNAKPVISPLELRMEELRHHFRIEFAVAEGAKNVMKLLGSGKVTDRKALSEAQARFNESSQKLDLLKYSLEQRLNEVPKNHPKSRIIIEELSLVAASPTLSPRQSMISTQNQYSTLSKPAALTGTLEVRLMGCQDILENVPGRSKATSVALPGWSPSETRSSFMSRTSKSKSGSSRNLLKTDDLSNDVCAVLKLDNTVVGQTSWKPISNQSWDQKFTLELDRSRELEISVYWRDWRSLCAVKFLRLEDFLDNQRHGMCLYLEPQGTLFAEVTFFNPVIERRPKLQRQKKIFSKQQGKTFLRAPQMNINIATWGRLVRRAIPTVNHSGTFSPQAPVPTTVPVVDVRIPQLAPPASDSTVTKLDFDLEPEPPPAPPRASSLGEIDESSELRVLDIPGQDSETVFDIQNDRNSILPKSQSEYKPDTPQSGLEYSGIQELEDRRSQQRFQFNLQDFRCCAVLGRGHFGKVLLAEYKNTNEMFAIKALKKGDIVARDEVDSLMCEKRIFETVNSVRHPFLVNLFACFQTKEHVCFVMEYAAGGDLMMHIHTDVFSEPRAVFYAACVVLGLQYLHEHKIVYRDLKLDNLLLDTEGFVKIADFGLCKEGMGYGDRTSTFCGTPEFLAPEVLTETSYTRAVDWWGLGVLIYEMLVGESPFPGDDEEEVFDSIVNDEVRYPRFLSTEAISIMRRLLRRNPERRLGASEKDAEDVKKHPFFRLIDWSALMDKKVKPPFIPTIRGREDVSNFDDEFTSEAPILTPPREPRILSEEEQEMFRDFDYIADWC
# T5 sequence (P07949 29-1114): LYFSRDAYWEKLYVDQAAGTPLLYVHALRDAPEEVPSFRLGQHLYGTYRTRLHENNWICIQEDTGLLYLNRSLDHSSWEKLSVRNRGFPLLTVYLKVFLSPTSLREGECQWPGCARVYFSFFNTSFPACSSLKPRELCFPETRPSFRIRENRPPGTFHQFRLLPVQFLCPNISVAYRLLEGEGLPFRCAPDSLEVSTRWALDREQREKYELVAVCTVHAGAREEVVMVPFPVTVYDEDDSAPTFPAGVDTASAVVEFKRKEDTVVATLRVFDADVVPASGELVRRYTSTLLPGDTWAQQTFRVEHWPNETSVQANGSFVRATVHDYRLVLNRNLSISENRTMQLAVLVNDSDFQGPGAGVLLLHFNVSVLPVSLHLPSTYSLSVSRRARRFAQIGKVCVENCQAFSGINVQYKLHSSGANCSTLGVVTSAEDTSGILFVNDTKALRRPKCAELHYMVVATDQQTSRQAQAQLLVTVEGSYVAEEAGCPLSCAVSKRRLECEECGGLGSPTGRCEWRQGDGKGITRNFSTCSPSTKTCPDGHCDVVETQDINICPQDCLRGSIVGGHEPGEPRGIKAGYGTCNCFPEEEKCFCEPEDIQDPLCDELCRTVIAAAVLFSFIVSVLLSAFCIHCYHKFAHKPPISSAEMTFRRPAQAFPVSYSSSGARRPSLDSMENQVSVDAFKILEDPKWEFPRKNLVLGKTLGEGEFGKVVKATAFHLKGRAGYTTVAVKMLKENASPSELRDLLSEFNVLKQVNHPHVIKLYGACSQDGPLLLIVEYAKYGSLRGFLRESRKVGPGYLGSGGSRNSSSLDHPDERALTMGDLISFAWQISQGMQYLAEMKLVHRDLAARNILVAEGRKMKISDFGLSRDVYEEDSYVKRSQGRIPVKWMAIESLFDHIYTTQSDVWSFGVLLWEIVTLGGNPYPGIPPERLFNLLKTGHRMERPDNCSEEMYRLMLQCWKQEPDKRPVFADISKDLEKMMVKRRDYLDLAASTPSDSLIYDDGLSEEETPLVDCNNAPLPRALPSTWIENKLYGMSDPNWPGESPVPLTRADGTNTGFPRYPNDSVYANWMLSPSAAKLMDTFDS
# T8 sequence (Q16288 32-839): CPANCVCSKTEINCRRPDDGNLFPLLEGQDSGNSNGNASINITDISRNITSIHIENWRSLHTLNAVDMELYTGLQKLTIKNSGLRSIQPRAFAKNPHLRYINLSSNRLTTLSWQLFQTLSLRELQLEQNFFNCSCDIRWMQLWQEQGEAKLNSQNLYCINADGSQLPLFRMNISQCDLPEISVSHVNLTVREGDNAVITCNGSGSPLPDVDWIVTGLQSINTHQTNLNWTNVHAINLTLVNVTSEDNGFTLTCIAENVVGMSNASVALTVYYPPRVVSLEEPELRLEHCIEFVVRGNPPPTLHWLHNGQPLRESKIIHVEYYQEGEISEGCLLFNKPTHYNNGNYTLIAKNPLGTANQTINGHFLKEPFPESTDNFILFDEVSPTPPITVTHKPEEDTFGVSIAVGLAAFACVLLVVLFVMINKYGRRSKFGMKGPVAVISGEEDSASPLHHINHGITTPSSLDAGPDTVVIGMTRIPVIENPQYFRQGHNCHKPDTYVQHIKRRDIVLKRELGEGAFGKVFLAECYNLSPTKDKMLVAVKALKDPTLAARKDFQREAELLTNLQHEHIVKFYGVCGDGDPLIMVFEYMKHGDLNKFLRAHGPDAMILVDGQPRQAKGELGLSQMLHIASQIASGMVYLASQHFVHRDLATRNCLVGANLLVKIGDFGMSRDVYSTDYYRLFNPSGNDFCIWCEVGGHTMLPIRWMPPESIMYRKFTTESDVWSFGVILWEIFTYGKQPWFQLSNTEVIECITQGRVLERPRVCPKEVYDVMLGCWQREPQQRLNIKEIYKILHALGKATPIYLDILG
SMILES,inhibition at 10 µM (PKN2) [%],inhibition at 10 µM (PRKG2) [%],inhibition at 10 µM (PTK2) [%],inhibition at 10 µM (PTK2B) [%],inhibition at 10 µM (RET) [%],inhibition at 10 µM (TNNI3K) [%],inhibition at 10 µM (TRKA) [%],inhibition at 10 µM (TRKC) [%],inhibition at 10 µM (ULK3(mouse)) [%],inhibition at 10 µM (YANK3) [%],inhibition at 10 µM (YES) [%]
C[C@@H](Oc1cc(-c2cnc3ccccn23)sc1C(N)=O)c1ccccc1Cl [Compound 8],79.3,0,0,0,0,0,0,0,0,0,0
Cc1ccc(O)cc1N(C)c1ccnc(Nc2cccc(S(N)(=O)=O)c2)n1 [Compound 4],0,0,93.4,99,100,100,0,90,98.8,78.6,100
COc1cc(Nc2nccc(-c3sc(N)nc3-c3cccc(NC(=O)c4c(F)cccc4F)c3)n2)cc(OC)c1OC [Compound 7],0,0,97,99.9,100,100,0,0,100,94.8,100
CN1CCN(c2ccc(Nc3nccc(-c4cnn5ncccc45)n3)cc2C#N)CC1 [Compound 1],67.8,0,87.2,83.9,89.8,0,91.3,82.8,97.1,0,92.8
Fc1cccc(COc2ccc(Nc3ncnc4c3CN(CCN3CCOCC3)CC4)cc2Cl)c1 [Compound 6],71.4,0,0,0,0,0,0,0,0,0,0
Cc1ccc(O)cc1Nc1ccnc(Nc2cccc(C(N)=O)c2)n1 [Compound 3],0,0,0,83.8,100,99.9,0,0,91.5,0,100
Clc1ccc(Nc2ncc(-c3ccccc3)s2)cc1 [Compound 10],0,0,0,0,0,86,0,0,0,0,0
COc1ccc(Nc2nccc(-c3cnn4ncccc34)n2)cc1 [Compound 2],0,0,99.3,89.6,0,0,0,0,92.5,0,0
c1ccc(COc2cccc(-c3ccnc4[nH]ccc34)c2)cc1 [Compound 9],0,0,0,0,0,0,0,0,0,0,0
Nc1ncc2c(-c3ccncc3)c[nH]c2n1 [Compound 11],0,0,0,0,0,0,0,0,91.7,0,66.2
